Experimental data as given in publication PMC8635029 (Frontiers in Pharmacology, 2021).

Assays:
Monoamine Oxidase MAO-A = target: T1, Monoamine Oxidase MAO-A (Homo sapiens, UniProt P21397); assay: In vitro SafetyScreen panel; format: biochemical
T1 construct: Eurofins Discovery (contract panel) Item PP223
Protocol: (§1) In vitro off-target pharmacological activities of HSK21542 were evaluated on 86 targets using a SafetyScreen panel (Item PP223, target selectivity panel) and the corresponding methods could be found at https://www.eurofinsdiscoveryservices.com/.

[1] = target: T2, Cholinesterase, Acetyl, ACES (Homo sapiens, UniProt P22303); assay: In vitro SafetyScreen panel; format: biochemical
T2 construct: Eurofins Discovery (contract panel) PP223
Protocol: as §1

Cyclooxygenase COX-1 = target: T3, Cyclooxygenase COX-1 (Homo sapiens, UniProt P23219); assay: In vitro SafetyScreen panel; format: biochemical
T3 construct: Eurofins Discovery (contract panel) PP223
Protocol: as §1

Monoamine Oxidase MAO-B = target: T4, Monoamine Oxidase MAO-B (Homo sapiens, UniProt P27338); assay: In vitro SafetyScreen panel; format: biochemical
T4 construct: Eurofins Discovery (outsourced panel) PP223
Protocol: as §1

[2] = target: T5, Peptidase, CTSG (Cathepsin G) (Homo sapiens, UniProt P08311); assay: In vitro SafetyScreen panel; format: biochemical
T5 construct: Eurofins Discovery (outsourced panel) PP223
Protocol: as §1

[3] = target: T6, Protein Tyrosine Kinase, Insulin Receptor (Homo sapiens, UniProt P06213); assay: In vitro SafetyScreen panel; format: biochemical
T6 construct: Eurofins Discovery (outsourced panel) PP223
Protocol: as §1

Cyclooxygenase COX-2 = target: T7, Cyclooxygenase COX-2 (Homo sapiens, UniProt P35354); assay: In vitro SafetyScreen panel; format: biochemical
T7 construct: Eurofins Discovery (contract panel) Item PP223
Protocol: as §1

[4] = target: T8, Protein Tyrosine Kinase, LCK (Homo sapiens, UniProt P06239); assay: In vitro SafetyScreen panel; format: biochemical
T8 construct: Eurofins Discovery (outsourced panel) PP223
Protocol: as §1

human κ opioid receptor [5] = target: T9, human κ opioid receptor (Homo sapiens, UniProt P41145); assay: [3H]diprenorphine binding assay
T9 construct: expressed in transfected cells; cell membranes

[6] = target: T10, Peptidase, Angiotensin Converting Enzyme (Oryctolagus cuniculus, UniProt P12822); assay: In vitro SafetyScreen panel; format: biochemical, rabbit
T10 construct: Eurofins Discovery (outsourced panel) PP223
Protocol: as §1

C57BL/6J mice = assay: Hot-plate test; format: in vivo; conditions: hot-plate test ED50 / writhing test ED50
Protocol: The hot-plate test was performed according to previous reports ([DeWire et al., 2013]; [Hill et al., 2018a]; [Wang et al., 2018]). Female C57BL/6J mice were individually placed on a hot plate at 56°C and the latency to licking or jumping was then recorded. A cut-off time of 30 s was imposed in order to prevent tissue damage. Before drug administration, the latency of each mouse was measured and defined as the pre-drug value. The animals with a pre-drug value of greater than 20 s were excluded.

human κ opioid receptor [7] = target: T9, human κ opioid receptor; assay: cAMP accumulation assay (forskolin-induced); format: cell-based; conditions: 2 μM forskolin, 30 min; read-out: EC50 for inhibition of forskolin-induced cAMP accumulation
Protocol: PathHunter® U2OS OPRK1 β-Arrestin cell line (DiscoverX) was maintained in McCoy’s 5A with 10% FBS, 250 μg/ml Hygromycin B and 500 μg/ml G418. When the cells reached to 80–90% confluence, they were collected and resuspended in HBSS (1X) containing 50 mM HEPES, 5 mM IBMX and 1% BSA stabilizer (lance® UltracAMP Kit, PerkinElmer) by adjusting the cell density to 3 × 10^5 cells/mL. The cells were divided into 384-well white plate (Corning®3572) at a volume of 5 μL, and were treated with compounds and 2 μM forskolin (an inducer of intracellular cAMP formation) for 30 min at room temperature. Subsequently, 5 μL of Eu-cAMP Tracer Working Solution and 5 μL of Ulight-anti-cAMP Working Solution per well were added to reach a final volume of 20 μL. The plate was incubated for 1 h at room temperature in the dark. The cAMP levels were then determined by using a microplate reader with TR-FRET assay ([Wang et al., 2014]). The results was expressed as (1–Signal[compound]/Signal[control]) × 100.

ICR mice = assay: Measurement of respiration (whole body plethysmography); format: in vivo; conditions: 2 mg/kg
Protocol: A whole body plethysmography (DSI, US) was used to measure respiration in freely moving ICR mice (half male and half female) as described previously ([Manglik et al., 2016]; [Hill et al., 2018a]; [Hill et al., 2018b]) with some modifications. The respiratory frequency was recorded and then averaged for over 5-min period. The baseline values were recorded for 10 min before dosing. The mice were then removed from the chambers and given drugs, and respiration was then measured for 45 min.

T9 sequence (P41145 whole entry): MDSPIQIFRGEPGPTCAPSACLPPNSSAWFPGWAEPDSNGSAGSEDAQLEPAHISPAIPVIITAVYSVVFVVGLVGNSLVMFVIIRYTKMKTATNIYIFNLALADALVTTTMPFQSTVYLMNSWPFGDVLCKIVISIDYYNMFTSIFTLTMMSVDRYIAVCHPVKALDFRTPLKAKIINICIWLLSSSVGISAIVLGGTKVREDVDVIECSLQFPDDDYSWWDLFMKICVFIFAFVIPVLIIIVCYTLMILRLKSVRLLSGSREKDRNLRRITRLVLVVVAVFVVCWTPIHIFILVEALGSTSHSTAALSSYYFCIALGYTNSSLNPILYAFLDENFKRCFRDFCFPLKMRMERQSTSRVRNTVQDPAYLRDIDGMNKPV
T1 sequence (P21397 whole entry): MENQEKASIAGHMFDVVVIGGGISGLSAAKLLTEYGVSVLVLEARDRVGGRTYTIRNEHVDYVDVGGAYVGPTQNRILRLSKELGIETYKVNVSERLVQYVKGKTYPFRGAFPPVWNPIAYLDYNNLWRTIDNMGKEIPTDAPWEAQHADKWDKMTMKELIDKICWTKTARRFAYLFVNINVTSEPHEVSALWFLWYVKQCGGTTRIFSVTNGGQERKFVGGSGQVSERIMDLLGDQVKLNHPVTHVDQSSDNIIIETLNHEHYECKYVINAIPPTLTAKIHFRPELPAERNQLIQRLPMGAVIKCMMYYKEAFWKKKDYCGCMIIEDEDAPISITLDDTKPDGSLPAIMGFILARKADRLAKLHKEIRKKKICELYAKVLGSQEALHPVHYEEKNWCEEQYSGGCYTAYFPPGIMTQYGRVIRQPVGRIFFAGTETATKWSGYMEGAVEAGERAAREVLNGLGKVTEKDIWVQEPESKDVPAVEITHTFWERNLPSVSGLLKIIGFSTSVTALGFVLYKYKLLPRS
T5 sequence (P08311 21-255): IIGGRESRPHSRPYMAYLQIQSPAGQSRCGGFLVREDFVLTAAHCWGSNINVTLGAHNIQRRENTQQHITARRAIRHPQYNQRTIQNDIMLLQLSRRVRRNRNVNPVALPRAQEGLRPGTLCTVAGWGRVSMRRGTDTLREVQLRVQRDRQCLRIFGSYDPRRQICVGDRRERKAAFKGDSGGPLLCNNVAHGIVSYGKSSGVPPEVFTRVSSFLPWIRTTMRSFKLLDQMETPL
T10 sequence (P12822 34-1310): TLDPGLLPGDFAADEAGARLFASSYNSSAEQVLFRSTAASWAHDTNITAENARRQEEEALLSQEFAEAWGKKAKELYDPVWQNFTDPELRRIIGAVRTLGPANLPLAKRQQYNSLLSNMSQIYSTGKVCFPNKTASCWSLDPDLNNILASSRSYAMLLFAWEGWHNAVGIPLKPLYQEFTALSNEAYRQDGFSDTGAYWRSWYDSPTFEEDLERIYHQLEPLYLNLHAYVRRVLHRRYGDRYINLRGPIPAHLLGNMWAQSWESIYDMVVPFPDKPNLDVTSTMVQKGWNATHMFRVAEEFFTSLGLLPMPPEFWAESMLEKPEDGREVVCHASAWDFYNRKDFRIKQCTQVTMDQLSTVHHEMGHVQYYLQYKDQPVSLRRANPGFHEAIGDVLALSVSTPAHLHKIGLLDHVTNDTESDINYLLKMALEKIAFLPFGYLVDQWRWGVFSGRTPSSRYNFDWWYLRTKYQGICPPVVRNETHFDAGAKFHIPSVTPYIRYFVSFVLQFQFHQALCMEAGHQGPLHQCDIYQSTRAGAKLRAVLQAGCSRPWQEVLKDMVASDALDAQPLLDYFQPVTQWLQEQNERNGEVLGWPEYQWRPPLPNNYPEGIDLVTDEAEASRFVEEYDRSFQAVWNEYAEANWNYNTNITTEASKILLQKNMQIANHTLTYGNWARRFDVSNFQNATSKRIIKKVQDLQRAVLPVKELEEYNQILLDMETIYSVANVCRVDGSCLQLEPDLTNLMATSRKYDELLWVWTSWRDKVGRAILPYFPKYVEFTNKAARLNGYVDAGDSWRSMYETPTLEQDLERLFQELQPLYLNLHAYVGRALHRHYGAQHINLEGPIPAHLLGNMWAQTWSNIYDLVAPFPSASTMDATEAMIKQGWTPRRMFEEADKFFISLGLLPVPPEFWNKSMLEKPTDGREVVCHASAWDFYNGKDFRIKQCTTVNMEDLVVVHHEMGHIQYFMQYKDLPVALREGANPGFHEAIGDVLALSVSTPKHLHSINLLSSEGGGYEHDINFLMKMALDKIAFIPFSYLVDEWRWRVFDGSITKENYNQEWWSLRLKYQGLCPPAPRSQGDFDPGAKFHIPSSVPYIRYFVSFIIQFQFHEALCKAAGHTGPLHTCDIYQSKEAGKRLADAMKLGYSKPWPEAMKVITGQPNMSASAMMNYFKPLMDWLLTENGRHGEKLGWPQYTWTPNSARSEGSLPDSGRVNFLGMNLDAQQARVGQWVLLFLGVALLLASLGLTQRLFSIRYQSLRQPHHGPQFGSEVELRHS
T8 sequence (P06239 whole entry): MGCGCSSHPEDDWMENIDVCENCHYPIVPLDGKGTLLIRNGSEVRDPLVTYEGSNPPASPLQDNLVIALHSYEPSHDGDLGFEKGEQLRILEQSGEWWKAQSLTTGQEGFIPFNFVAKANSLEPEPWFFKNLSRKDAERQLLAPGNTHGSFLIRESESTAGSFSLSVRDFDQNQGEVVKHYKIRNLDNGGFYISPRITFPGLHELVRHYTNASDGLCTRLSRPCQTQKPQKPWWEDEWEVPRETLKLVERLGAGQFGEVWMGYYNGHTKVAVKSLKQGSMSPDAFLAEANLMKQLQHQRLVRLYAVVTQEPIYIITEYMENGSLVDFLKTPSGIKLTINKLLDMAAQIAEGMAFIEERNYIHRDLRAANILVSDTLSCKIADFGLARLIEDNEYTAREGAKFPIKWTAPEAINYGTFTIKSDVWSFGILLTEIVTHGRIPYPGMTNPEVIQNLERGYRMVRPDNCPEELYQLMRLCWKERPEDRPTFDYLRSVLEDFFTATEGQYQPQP
T4 sequence (P27338 whole entry): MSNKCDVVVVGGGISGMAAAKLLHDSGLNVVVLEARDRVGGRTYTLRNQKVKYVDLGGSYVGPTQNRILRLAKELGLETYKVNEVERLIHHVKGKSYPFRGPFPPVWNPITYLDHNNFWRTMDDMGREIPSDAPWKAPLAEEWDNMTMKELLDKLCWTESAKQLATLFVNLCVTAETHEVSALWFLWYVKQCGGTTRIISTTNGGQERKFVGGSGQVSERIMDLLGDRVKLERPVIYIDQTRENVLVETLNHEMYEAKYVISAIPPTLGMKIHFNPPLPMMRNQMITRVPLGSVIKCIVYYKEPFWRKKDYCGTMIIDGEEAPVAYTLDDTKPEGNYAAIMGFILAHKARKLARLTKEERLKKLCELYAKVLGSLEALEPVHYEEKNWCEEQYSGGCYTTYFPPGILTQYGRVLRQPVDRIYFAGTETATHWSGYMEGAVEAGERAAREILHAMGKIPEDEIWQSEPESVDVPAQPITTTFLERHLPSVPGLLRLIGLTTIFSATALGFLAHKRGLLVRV
T6 sequence (P06213 28-1382): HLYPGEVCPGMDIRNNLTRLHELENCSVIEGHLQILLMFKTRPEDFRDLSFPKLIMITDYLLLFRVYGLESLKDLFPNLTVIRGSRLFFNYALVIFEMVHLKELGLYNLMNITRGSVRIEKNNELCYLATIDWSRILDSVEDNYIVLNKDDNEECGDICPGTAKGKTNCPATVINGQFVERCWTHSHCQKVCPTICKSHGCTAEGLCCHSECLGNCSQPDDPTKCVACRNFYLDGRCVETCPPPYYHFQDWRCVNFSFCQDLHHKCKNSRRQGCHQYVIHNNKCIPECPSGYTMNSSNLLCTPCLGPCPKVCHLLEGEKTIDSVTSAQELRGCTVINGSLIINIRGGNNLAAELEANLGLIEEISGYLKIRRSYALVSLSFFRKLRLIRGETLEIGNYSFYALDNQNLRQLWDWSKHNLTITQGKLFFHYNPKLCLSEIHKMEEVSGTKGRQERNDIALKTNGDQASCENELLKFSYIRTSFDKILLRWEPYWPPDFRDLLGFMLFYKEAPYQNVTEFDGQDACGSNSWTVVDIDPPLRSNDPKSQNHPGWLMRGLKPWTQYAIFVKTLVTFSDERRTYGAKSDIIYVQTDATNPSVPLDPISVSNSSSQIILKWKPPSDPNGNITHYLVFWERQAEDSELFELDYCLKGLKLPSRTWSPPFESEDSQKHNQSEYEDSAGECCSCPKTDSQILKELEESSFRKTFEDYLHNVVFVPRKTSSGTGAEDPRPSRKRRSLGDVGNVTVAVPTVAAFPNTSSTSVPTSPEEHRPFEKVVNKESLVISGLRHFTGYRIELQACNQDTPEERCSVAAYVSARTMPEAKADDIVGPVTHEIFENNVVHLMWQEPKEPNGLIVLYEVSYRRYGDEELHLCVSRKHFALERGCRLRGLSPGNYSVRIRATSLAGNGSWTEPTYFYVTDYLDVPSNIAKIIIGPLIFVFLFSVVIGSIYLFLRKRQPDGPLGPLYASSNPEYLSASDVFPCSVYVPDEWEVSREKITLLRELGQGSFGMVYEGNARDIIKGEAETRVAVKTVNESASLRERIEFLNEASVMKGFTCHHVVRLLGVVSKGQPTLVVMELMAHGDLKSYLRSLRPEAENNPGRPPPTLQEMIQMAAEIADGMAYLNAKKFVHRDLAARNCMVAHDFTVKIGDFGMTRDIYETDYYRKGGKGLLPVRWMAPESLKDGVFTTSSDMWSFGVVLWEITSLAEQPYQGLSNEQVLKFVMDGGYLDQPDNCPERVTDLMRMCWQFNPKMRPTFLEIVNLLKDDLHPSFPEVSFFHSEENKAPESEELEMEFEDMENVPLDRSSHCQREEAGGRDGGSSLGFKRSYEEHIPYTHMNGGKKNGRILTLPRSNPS

CC(=O)N1CC2(CCN(C(=O)[C@@H](CCCCN)NC(=O)[C@@H](CC(C)C)NC(=O)[C@@H](Cc3ccccc3)NC(=O)[C@H](N)Cc3ccccc3)CC2)C1 [HSK21542, 7-(D-phenylalanyl-D-phenylalanyl-D-leucyl-D-lysyl)-2-acetyl-2,7-diazaspiro (3.5)nonane]
inhibition at 10 µM (Monoamine Oxidase MAO-A): 0%
inhibition at 10 µM [1]: 6%
inhibition at 10 µM (Cyclooxygenase COX-1): 9%
inhibition at 10 µM (Monoamine Oxidase MAO-B): 11%
inhibition at 10 µM [2]: -1%
inhibition at 10 µM [3]: 17%
inhibition at 10 µM (Cyclooxygenase COX-2): 12%
inhibition at 10 µM [4]: -8%
IC50 (human κ opioid receptor [5]; HEK-293 membranes expressing human KOR, 0.6 nM [3H]diprenorphine, 25°C, 60 min, read-out: IC50 for inhibition of [3H]diprenorphine binding to KOR): 0.54 nM
Kd (human κ opioid receptor [5]; competitive binding kinetic model, [3H]diprenorphine, read-out: Kd for binding to KOR (binding kinetics)): 0.068 nM
inhibition at 10 µM [6]: 5%
Therapeutic index (C57BL/6J mice): 116.6
EC50 (human κ opioid receptor [7]): 2.41 pM
effect on respiratory rate (ICR mice): no obvious effects
